For two compounds, Ki and ki/KI results are on record in paper PMC8764865, “Activity-based protein profiling reveals dynamic substrate-specific cellulase secretion by saprotrophic basidiomycetes” (Biotechnology for Biofuels and Bioproducts, 2022).

Common to all, as to type: biochemical
Assay [1] addresses T1, LsGH10A (Trametes sp., UniProt Z9JQD7XB80).
T1 construct: native signal peptide removed (alpha-factor secretion signal), C-terminal 6xHis, codon-optimised, Pichia pastoris X-33; later-eluting Superdex 200 peak
Put plainly: continuous fluorogenic inhibition kinetics (4-methylumbelliferyl glycoside). As to conditions: non-covalent; no covalent inhibition discernible after 1 h; 50 mM NaOAc pH 4.0 final; inhibition assay, printed only as affinity.

Another assay deals with T2, LsGH5_5A (Trametes sp., UniProt Z9YXY2URI3).
T2 construct: native signal peptide removed (alpha-factor secretion signal), C-terminal 6xHis (intact), codon-optimised, Pichia pastoris X-33
T2 sequence (Z9YXY2URI3 1-398): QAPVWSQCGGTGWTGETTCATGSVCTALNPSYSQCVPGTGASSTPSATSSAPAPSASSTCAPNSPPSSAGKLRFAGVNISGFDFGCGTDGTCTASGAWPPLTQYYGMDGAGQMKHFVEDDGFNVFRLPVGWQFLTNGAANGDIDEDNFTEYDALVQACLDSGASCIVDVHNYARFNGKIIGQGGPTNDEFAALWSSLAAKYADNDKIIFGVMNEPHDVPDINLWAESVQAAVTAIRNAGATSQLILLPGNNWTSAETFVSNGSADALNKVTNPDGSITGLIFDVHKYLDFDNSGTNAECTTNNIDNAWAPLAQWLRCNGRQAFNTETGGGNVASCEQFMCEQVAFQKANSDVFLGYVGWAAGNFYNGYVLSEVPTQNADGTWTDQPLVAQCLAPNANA
Briefly: continuous fluorogenic inhibition kinetics, 4MU-GG substrate. The following applies: covalent, time-dependent; up to 50 uM inhibitor; 0.4 mM substrate stock mixed 1:1; NaOAc pH 4.0.

Assay [2] has as its target T1, LsGH10A. Described as above. The following applies: covalent, time-dependent; up to 50 uM inhibitor; 0.4 mM substrate stock mixed 1:1; NaOAc pH 4.0.
For another assay, the target named is T3, TlGH12A (Pilatotrama ljubarskyi, UniProt Z9OT85M9A7).
T3 construct: native signal peptide removed (alpha-factor secretion signal), C-terminal 6xHis, codon-optimised, Pichia pastoris X-33
T3 sequence (Z9OT85M9A7 1-225): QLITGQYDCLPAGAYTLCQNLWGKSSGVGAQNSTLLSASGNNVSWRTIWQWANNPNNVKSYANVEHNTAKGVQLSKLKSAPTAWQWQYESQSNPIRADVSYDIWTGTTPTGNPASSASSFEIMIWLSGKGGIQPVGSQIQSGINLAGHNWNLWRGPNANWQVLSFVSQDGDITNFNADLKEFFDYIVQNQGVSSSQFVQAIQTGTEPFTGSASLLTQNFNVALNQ
Described as above. As to conditions: covalent, time-dependent; up to 50 uM inhibitor; 0.4 mM substrate stock mixed 1:1; NaOAc pH 4.0.

Turning to `O=C(CCCC[C@@H]1SC[C@@H]2NC(=O)N[C@@H]21)NCCCCCCCCN1[C@H]2[C@H](O)[C@@H](O)[C@H](O[C@@H]3OC[C@@H](O)[C@H](O)[C@H]3O)C[C@H]21` (stereo partly shown) [Biotin-ABP-Xyn], the Ki on LsGH10A [1] worked out at 21 nM.
For `OC[C@H]1[C@H]2O[C@H]2[C@H](O)[C@@H](O)[C@@H]1O[C@@H]1O[C@H](CO)[C@@H](O)[C@H](O)[C@H]1O` [GGcyc], the ki/KI result at LsGH5_5A is “clear time-dependent inhibition of LsGH5_5A, TlGH12A, and LsGH10A by GGcyc”; on LsGH10A [2], “clear time-dependent inhibition of LsGH5_5A, TlGH12A, and LsGH10A by GGcyc”; on TlGH12A it was “clear time-dependent inhibition of LsGH5_5A, TlGH12A, and LsGH10A by GGcyc”.
